Key:
[1] = target: hOPRm1 (Homo sapiens, UniProt P35372); assay: β-arrestin Antagonist (Eurofins-CEREP); conditions: read-out: % Effect, Inhibition
[2] = target: T1, hMAP4K4 (Homo sapiens, UniProt O95819); assay: KINOMEscan; format: binding
T1 construct: purchased DiscoverX (KINOMEscan platform)

[3] = target: T2, hCTK (Homo sapiens, UniProt P42679); assay: KINOMEscan; format: binding
T2 construct: purchased DiscoverX (KINOMEscan platform)

[4] = target: T3, hMET(Y1235D) (Homo sapiens, UniProt P08581, Y1235D); assay: KINOMEscan; format: binding
T3 construct: purchased DiscoverX

[5] = target: T4, hFLT4 (Homo sapiens, UniProt P35916); assay: KINOMEscan; format: binding
T4 construct: purchased DiscoverX

[6] = target: T5, hEPHB2 (Homo sapiens, UniProt P29323); assay: KINOMEscan; format: binding
T5 construct: purchased DiscoverX

[7] = target: T6, hABL1(pM351T) (Homo sapiens, UniProt P00519, M351T); assay: KINOMEscan; format: binding
T6 construct: purchased DiscoverX (KINOMEscan platform)

[8] = target: T7, hBRSK1 (Homo sapiens, UniProt Q8TDC3); assay: KINOMEscan; format: binding
T7 construct: purchased DiscoverX

[9] = target: T8, hCAMK2D (Homo sapiens, UniProt Q13557); assay: KINOMEscan; format: binding
T8 construct: purchased DiscoverX

[10] = target: T9, hABL1(pE255K) (Homo sapiens, UniProt P00519, E255K); assay: KINOMEscan; format: binding
T9 construct: purchased DiscoverX (KINOMEscan platform)

[11] = target: T10, hRSK3(Kin.Dom.1-N-term) (Homo sapiens, UniProt Q15349); assay: KINOMEscan; format: binding
T10 construct: hRSK3(Kin.Dom.1-N-term); purchased DiscoverX (KINOMEscan platform)

[12] = target: T11, hRET(V804L) (Homo sapiens, UniProt P07949, V804L); assay: KINOMEscan; format: binding
T11 construct: purchased DiscoverX (KINOMEscan platform)

[13] = target: T12, hHASPIN (Homo sapiens, UniProt Q8TF76); assay: KINOMEscan; format: binding
T12 construct: purchased DiscoverX
T12 sequence (Q8TF76 whole entry): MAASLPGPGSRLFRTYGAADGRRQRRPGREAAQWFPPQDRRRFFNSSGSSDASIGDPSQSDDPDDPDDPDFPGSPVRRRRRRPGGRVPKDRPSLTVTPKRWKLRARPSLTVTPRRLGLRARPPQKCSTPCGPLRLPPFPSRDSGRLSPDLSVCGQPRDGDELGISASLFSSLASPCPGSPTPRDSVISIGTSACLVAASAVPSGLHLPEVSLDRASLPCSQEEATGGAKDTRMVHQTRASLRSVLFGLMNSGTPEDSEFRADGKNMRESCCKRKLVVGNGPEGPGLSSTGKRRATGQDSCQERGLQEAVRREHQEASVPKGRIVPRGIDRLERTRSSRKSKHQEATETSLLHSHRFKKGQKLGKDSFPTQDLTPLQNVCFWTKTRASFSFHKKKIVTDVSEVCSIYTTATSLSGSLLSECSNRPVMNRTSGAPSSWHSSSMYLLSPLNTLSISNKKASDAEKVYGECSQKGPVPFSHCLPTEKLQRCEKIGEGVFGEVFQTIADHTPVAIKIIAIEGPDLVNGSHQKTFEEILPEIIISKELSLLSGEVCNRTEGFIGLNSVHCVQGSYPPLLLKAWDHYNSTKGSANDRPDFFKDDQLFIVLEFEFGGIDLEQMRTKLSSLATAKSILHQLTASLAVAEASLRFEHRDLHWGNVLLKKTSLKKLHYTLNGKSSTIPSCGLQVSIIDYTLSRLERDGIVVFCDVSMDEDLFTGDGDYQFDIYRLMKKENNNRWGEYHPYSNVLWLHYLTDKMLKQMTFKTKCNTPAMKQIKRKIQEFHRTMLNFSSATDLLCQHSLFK

[14] = target: T13, hSNARK (Homo sapiens, UniProt Q9H093); assay: KINOMEscan; format: binding
T13 construct: purchased DiscoverX (KINOMEscan platform)

[15] = target: T14, hYES (Homo sapiens, UniProt P07947); assay: KINOMEscan; format: binding
T14 construct: purchased DiscoverX

[16] = target: T15, hTNNI3K (Homo sapiens, UniProt Q59H18); assay: KINOMEscan; format: binding
T15 construct: purchased DiscoverX

[17] = target: T16, hCAMK2G (Homo sapiens, UniProt Q13555); assay: KINOMEscan; format: binding
T16 construct: purchased DiscoverX

[18] = target: T17, hRET(V804M) (Homo sapiens, UniProt P07949, V804M); assay: KINOMEscan; format: binding
T17 construct: purchased DiscoverX (KINOMEscan platform)

[19] = target: T18, hTRPM6 (Homo sapiens, UniProt Q9BX84); assay: KINOMEscan; format: binding
T18 construct: purchased DiscoverX
T18 sequence (Q9BX84 whole entry): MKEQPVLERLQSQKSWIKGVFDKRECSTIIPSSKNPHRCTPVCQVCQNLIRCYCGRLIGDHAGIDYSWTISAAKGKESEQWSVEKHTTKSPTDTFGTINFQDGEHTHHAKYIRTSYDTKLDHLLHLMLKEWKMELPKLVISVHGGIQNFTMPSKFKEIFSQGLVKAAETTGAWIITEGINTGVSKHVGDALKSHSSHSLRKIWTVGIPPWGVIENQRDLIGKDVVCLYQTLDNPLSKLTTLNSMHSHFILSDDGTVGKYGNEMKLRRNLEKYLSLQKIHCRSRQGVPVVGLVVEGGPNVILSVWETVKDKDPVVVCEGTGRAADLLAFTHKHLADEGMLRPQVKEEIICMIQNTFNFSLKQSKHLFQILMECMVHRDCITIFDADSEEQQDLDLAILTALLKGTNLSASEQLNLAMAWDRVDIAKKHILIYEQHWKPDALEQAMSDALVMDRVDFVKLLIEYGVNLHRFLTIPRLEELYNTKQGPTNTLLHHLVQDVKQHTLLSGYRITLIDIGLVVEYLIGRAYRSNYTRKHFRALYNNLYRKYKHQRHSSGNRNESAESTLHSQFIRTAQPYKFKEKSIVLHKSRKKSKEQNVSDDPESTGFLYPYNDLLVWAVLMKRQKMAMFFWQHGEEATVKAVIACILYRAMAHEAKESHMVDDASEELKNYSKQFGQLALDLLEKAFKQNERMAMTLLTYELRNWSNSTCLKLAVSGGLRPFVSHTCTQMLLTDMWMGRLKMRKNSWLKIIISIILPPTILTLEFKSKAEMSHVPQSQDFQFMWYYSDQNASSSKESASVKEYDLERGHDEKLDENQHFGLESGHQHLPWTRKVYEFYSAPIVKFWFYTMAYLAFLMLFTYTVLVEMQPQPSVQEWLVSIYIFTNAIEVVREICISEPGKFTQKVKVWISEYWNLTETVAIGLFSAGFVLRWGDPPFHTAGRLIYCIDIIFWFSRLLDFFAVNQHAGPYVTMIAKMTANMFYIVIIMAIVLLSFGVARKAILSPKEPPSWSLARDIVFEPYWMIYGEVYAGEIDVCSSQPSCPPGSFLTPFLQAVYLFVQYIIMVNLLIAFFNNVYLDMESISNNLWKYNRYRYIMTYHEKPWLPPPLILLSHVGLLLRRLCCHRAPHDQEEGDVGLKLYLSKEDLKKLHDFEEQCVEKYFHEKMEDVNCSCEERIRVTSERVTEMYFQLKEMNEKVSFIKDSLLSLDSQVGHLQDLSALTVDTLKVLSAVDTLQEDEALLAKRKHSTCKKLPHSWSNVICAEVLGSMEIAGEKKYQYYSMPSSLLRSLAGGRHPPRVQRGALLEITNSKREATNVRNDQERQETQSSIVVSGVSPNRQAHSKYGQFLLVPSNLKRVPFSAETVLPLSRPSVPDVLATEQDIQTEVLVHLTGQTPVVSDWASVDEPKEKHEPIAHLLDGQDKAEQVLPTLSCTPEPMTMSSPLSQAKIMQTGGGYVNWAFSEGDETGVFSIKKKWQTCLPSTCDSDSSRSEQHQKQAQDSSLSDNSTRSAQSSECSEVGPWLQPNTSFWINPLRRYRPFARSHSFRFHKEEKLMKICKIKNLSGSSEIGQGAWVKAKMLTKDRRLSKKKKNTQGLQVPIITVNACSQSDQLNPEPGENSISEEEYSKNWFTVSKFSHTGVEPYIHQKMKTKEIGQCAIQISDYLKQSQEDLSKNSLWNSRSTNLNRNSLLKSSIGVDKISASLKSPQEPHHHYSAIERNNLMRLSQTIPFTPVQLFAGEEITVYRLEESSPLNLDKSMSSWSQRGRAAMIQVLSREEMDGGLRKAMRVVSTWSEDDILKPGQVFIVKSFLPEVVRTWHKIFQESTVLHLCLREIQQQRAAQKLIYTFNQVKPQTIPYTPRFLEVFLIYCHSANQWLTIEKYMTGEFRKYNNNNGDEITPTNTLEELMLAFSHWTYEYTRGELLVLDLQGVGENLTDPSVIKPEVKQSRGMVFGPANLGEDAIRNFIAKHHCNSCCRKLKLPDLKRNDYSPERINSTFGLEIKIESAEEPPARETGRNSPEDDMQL

[20] = target: T19, hEPHB3 (Homo sapiens, UniProt P54753); assay: KINOMEscan; format: binding
T19 construct: purchased DiscoverX

[21] = target: T20, hACVR2B (Homo sapiens, UniProt Q13705); assay: KINOMEscan; format: binding
T20 construct: purchased DiscoverX (KINOMEscan platform)

[22] = target: T21, hTRKB (Homo sapiens, UniProt Q16620); assay: KINOMEscan; format: binding
T21 construct: purchased DiscoverX
T21 sequence (Q16620 32-822): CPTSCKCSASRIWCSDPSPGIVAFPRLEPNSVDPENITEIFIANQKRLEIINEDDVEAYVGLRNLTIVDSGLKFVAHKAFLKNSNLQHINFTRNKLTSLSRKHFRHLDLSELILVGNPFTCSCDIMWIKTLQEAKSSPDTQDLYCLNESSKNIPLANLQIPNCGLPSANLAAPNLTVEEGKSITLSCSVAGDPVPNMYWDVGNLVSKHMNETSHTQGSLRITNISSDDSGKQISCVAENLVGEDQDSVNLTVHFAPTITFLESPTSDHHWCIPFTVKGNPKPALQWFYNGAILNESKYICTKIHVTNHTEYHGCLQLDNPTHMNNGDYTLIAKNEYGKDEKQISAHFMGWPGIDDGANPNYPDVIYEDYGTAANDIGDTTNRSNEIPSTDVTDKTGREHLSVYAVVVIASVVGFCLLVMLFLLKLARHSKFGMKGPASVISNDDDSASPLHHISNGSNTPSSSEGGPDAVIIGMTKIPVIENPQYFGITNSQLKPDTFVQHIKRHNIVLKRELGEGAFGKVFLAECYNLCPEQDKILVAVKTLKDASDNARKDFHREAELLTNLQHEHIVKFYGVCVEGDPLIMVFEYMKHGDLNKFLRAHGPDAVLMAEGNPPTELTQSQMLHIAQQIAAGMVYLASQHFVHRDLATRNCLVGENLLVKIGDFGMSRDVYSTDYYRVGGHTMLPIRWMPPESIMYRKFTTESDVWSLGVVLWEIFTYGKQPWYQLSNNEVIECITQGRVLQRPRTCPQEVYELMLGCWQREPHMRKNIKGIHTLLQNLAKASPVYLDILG

[23] = target: T22, hDRAK1 (Homo sapiens, UniProt Q9UEE5); assay: KINOMEscan; format: binding
T22 construct: purchased DiscoverX

[24] = target: T23, hABL2 (Homo sapiens, UniProt P42684); assay: KINOMEscan; format: binding
T23 construct: purchased DiscoverX (KINOMEscan platform)

[25] = target: T24, hJNK2 (Homo sapiens, UniProt P45984); assay: KINOMEscan; format: binding
T24 construct: purchased DiscoverX (KINOMEscan panel)

[26] = target: T25, hRIPK2 (Homo sapiens, UniProt O43353); assay: KINOMEscan; format: binding
T25 construct: purchased DiscoverX (KINOMEscan platform)
T25 sequence (O43353 whole entry): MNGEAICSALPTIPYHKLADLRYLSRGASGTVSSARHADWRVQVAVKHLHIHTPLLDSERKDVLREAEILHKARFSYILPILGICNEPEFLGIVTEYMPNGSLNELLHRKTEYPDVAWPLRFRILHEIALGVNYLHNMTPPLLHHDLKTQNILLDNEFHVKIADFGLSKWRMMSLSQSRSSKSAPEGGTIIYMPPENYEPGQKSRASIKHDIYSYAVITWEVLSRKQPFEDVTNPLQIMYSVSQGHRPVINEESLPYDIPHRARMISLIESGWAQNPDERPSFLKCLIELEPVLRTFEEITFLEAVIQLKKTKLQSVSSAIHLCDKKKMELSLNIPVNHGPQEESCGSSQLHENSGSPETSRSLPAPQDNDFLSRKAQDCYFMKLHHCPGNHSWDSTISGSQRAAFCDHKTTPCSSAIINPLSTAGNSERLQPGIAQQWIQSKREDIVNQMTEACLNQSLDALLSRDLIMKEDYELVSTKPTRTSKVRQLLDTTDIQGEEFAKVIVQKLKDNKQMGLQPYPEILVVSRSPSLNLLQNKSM

[27] = target: hADRβ2 (Homo sapiens, UniProt P07550); assay: cAMP Potentiation (Eurofins-CEREP); conditions: @ 10 μM
[28] = target: T26, hFGFR2 (Homo sapiens, UniProt P21802); assay: KINOMEscan; format: binding
T26 construct: purchased DiscoverX

[29] = target: T27, hGSK3B (Homo sapiens, UniProt P49841); assay: KINOMEscan; format: binding
T27 construct: purchased DiscoverX

[30] = target: T28, hMARK1 (Homo sapiens, UniProt Q9P0L2); assay: KINOMEscan; format: binding
T28 construct: purchased DiscoverX

[31] = target: T29, hDDR2 (Homo sapiens, UniProt Q16832); assay: KINOMEscan; format: binding
T29 construct: purchased DiscoverX (KINOMEscan platform)

[32] = target: T30, hEPHA2 (Homo sapiens, UniProt P29317); assay: KINOMEscan; format: binding
T30 construct: purchased DiscoverX

[33] = target: T31, hYANK3 (Homo sapiens, UniProt Q86UX6); assay: KINOMEscan; format: binding
T31 construct: purchased DiscoverX

[34] = target: T32, hLATS1 (Homo sapiens, UniProt O95835); assay: KINOMEscan; format: binding
T32 construct: purchased DiscoverX (KINOMEscan platform)

[35] = target: T33, hRAF1 (Homo sapiens, UniProt P04049); assay: KINOMEscan; format: binding
T33 construct: purchased DiscoverX (KINOMEscan platform)

[36] = target: hD2L (Homo sapiens, UniProt P14416); assay: cAMP Potentiation (Eurofins-CEREP); conditions: @ 10 μM
[37] = target: T34, hRPS6KA4(Kin.Dom.1-N-term) (Homo sapiens, UniProt O75676); assay: KINOMEscan; format: binding
T34 construct: hRPS6KA4(Kin.Dom.1-N-term); purchased DiscoverX (KINOMEscan platform)

[38] = target: T35, hTAOK2 (Homo sapiens, UniProt Q9UL54); assay: KINOMEscan; format: binding
T35 construct: purchased DiscoverX

[39] = target: T36, hEGFR(T790M) (Homo sapiens, UniProt P00533, T790M); assay: KINOMEscan; format: binding
T36 construct: purchased DiscoverX

[40] = target: T37, hRSK1(Kin.Dom.1-N-term) (Homo sapiens, UniProt Q15418); assay: KINOMEscan; format: binding
T37 construct: hRSK1(Kin.Dom.1-N-term); purchased DiscoverX (KINOMEscan platform)

Chain of hOPRm1 (P35372 whole entry): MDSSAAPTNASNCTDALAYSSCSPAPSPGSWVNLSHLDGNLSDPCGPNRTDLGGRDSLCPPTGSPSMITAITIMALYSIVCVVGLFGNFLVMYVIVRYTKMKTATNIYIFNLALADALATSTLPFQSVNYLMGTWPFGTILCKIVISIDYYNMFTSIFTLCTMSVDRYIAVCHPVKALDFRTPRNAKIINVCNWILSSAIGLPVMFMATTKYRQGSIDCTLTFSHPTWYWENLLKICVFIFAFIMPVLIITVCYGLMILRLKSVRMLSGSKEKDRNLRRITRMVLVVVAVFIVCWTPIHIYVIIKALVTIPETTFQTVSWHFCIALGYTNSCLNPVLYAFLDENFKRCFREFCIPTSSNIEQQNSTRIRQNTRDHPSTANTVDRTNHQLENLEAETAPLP
T2 sequence (P42679 whole entry): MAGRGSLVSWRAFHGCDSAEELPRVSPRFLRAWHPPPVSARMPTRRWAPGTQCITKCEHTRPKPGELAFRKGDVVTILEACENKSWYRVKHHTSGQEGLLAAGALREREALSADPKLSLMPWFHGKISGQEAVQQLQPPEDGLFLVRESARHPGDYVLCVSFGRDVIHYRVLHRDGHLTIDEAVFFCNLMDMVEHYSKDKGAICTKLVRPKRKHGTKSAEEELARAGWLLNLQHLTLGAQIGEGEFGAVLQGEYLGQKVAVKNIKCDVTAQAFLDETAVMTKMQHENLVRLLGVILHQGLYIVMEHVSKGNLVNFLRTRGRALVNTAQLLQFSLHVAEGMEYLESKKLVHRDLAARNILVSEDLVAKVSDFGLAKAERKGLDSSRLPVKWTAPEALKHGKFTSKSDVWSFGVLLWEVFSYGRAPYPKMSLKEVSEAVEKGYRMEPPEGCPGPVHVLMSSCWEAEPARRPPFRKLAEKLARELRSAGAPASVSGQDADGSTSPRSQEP

Cc1cn(CCN2CCN(c3ccccc3-c3cc(C#N)cc(C(=O)NCCCN4CCCC4)c3)CC2)c2ccccc12 [LLY-507, 3-cyano-5-{2-[4-[2-(3-methylindol-1-yl)ethyl]piperazin-1-yl]-phenyl}-N-[(3-pyrrolidin-1-yl)propyl]benzamide]
inhibition at 1 µM [1]: -3.9%
IC50 [2]: > 20 µM
IC50 [3]: > 20 µM
IC50 [4]: > 20 µM
IC50 [5]: > 20 µM
IC50 [6]: > 20 µM
IC50 [7]: > 20 µM
IC50 [8]: > 20 µM
IC50 [9]: > 20 µM
IC50 [10]: > 20 µM
IC50 [11]: > 20 µM
IC50 [12]: > 20 µM
IC50 [13]: > 20 µM
IC50 [14]: > 20 µM
IC50 [15]: > 20 µM
IC50 [16]: > 20 µM
IC50 [17]: > 20 µM
IC50 [18]: > 20 µM
IC50 [19]: > 20 µM
IC50 [20]: > 20 µM
IC50 [21]: > 20 µM
IC50 [22]: > 20 µM
IC50 [23]: > 20 µM
IC50 [24]: > 20 µM
IC50 [25]: > 20 µM
IC50 [26]: > 20 µM
% Effect, Potentiation [27]: -27.2%
IC50 [28]: > 20 µM
IC50 [29]: > 20 µM
IC50 [30]: > 20 µM
IC50 [31]: > 20 µM
IC50 [32]: > 20 µM
IC50 [33]: > 20 µM
IC50 [34]: > 20 µM
IC50 [35]: > 20 µM
% Effect, Potentiation [36]: -27.5%
IC50 [37]: > 20 µM
IC50 [38]: > 20 µM
IC50 [39]: > 20 µM
IC50 [40]: > 20 µM
